Measurements reported in article PMC7539967, “The Plasmodium falciparum eIK1 kinase (PfeIK1) is central for melatonin synchronization in the human malaria parasite. Melatotosil blocks melatonin action on parasite cell cycle” (Journal of Pineal Research, 2020).
“Also recorded” adds a separate entry of the source. Where two headings read alike, the source gives them in different places.

How the values were obtained:
[1] = system: P. falciparum PfeIK1^‐; assay: In vitro growth assay and flow cytometry analysis (72 h), PfeIK1 knockout; assay type: cell-based, Plasmodium falciparum; conditions: for IC50: Plasmodium falciparum
Procedure: (§1) Red blood cells infected with P. falciparum 3D7 or PfeIK1^‐ (iRBC) with 0.3 % initial parasitemia and 1% hematocrit were incubated with different concentrations of compounds Tripbenz (4), Triptosil (5), Triptiofen (6), Tripfuroila (7), and Tripcicloexil (8) ranging from 0.107 to 110 µM, and compounds Melatobenz (9), Melatotosil (10), Melatofuroila (11), and Melatocicloexil (12) ranging from 0.1 to 100 µM for 72 hours at 37°C under mixture of gases. The control group was treated with solvent dimethyl sulfoxide (DMSO) (v/v), with the highest concentration of solvent 0.14%. Chloroquine was used as positive control with concentrations ranging from 0.244 to 250 nM. Parasitemia was determined from dot plots (side scatter versus fluorescence) of at least 10^3 cells acquired on a FACSCalibur flow cytometer using […] software (Becton Dickinson) or an Accuri C6 flow cytometer (Becton Dickinson). Initial gating was carried out with unstained, uninfected erythrocytes to account for erythrocyte auto fluorescence. The concentration responsible for 50% inhibition (IC50) was determined from the compound concentration‐response curve determined with the software GraphPad Prism 6.
(§2) For assays with antimalarials, iRBC were incubated with different concentrations of Atovaquone ranging from 0.02 to 24 nM, or Artemisinin 0.15‐160 nM.
(§3) After 72 hours, iRBC were stained with nucleic acid marker SYBR Green I (1X) (Invitrogen) and mitochondria marker based on membrane potential MitoTracker Deep Red (50 nM) (Invitrogen), and incubated for 20 minutes at 37°C. Final parasitemia was obtained by flow cytometer using a BD Accuri C6 Flow Cytometer, collecting 10^4 cells. Parasitemia was determined by dot plots using FlowJo 5 software.
(§4) At least three independent experiments were performed in triplicate to calculate the IC50 values for each drug.

[2] = system: P. falciparum GCaMP3 parasites; assay: Calcium assay in transgenic PfGCaMP3 parasites; assay type: cell-based, Plasmodium falciparum; conditions: 500 nM; for cytosolic calcium rise: PfGCaMP3; for Fmax/F0 (maximum fluorescence normalized to baseline): PfGCaMP3, 120 cells
Procedure: Calcium assays were performed using the transgenic P. falciparum GCaMP3 parasites. ^37 PfGCaMP3 cultures were synchronized at least three times with 5% sorbitol before starting the experiments, and parasitemia was maintained between 5% and 8%. PfGCaMP3 parasites were cultivated with 10 nM/mL of WR for selection. Parasites were isolated with saponin (0.016%) and collected by centrifugation 8000 rpm, subsequently washed twice with buffer M, and allowed to settle in a four‐well plate for microscope coated with poly‐L‐lysine for 30 minutes at 37°C with 5% CO2 in buffer M ([…], 5.4 mM KCl, 0.8 mM MgSO4, 5.5 mMD‐glucose, 50 mM MOPS, and 2 mM CaCl2, pH 7.2). The compounds used for measuring calcium assays were as follows: Melatotosil and Triptiofen solubilized in DMSO.
Images were captured using a Nikon Eclipse Ti2 inverted microscope with FITC filter. Images were collected every 10 seconds for 5 minutes, with NIS‐Elements Ar 5.11.01 from Nikon using 60× lens. All experiments were performed at least three independent times in duplicates.

[3] = system: P. falciparum PfeIK1^‐; assay: Effect of indole compounds in parasitemia (48 h), PfeIK1 knockout; assay type: cell-based; conditions: Plasmodium falciparum, read-out: final parasitemia normalized to control
Procedure: (§5) Red blood cells infected (iRBC) with 3D7 or PfeIK1^‐ (iRBC) with 1% initial parasitemia and 2% hematocrit were incubated with 500 nM of the synthetic indole compounds or 100 nM Melatonin for 48 hours at 37°C under mixture of gases. ^12 The control group received 0.0013% of solvent dimethyl sulfoxide (DMSO).
(§6) After 48 hours, iRBC were double‐stained ^34 with nucleic acid marker SYBR Green I (1X) and mitochondria marker, based on membrane potential, MitoTracker Deep Red (50 nM), and incubated for 20 minutes at 37°C.
(§7) Final parasitemia was obtained by flow cytometer using an Accuri C6 flow cytometer (Becton Dickinson), collecting 10^4 cells. Parasitemia was determined by dot plots using FlowJo 5 software.

[4] = system: Plasmodium falciparum 3D7; assay: In vitro growth assay and flow cytometry analysis (72 h), 3D7; assay type: cell-based; conditions: for IC50: Plasmodium falciparum
Procedure: as §1, §2, §3, §4

[5] = system: P. falciparum PfeIK1^‐; assay: Effect of compounds on melatonin action on parasitemia, PfeIK1 knockout; assay type: cell-based, Plasmodium falciparum; conditions: 500 nM compound + 100 nM melatonin, 48 h, normalized to control
Procedure: (§8) To evaluate the effect of the compounds on melatonin action on parasitemia, iRBC were incubated with 500 nM of compounds for 10 minutes and then along with 100 nM of melatonin for 48 hours at 37°C under mixture of gases.
as §6, §7

[6] = system: Plasmodium falciparum 3D7; assay: Effect of indole compounds in parasitemia (48 h), 3D7; assay type: cell-based; conditions: 3D7, 500 nM compound; for activity at 0.5 µM: Plasmodium falciparum, read-out: final parasitemia normalized to control
Procedure: as §5, §6, §7

[7] = system: Plasmodium falciparum 3D7; assay: Effect of compounds on melatonin action on parasitemia, 3D7; assay type: cell-based; conditions: 3D7, 500 nM compound + 100 nM melatonin, 48 h
Procedure: as §8, §6, §7

[8] = system: Human Embryonic Kidney cells (HEK293); assay: Cytotoxicity Assay in HEK293 cells (MTT); assay type: cell-based; conditions: 0.107 to 110 µM, 72 h
Procedure: To evaluate toxicity of the new indole compounds in mammalian cells, Human Embryonic Kidney cells (HEK293) were maintained in 75 cm^2 culture flasks (Greiner Bio‐One) at 37°C, 5%CO2 in […] (DMEM), supplemented with 10% fetal bovine serum, NaHCO33.7 g/L (Sigma), 100 U/mL penicillin/, and 100 μg/mL streptomycin in monolayers.
Cells were plated in flat‐bottom 96‐well plates in a density of 10^4 cells per well and incubated for 24 hours in 150 µL media at 37°C, 5%CO2. Cells were then treated with different concentrations of each compound, ranging from 0.107 to 110 µM in 200 µL DMEM for 72 hours at 37°C and 5%CO2. Cells treated with DMSO (v/v) with the highest concentration of solvent 0.14% were used as control.
After incubation, 40 µL of MTT reagent (solution 5 mg/mL in PBS) was added to each well, and cells were incubated for further 3 hours at 37°C and 5% CO2. The media were removed and 100 µL of DMSO was added in each well. Plates were agitated in a shaker for 10 minutes to dissolve precipitates. Absorbance was read at 570 nm in a FlexStation 3 (Molecular Devices). Six experiments were performed independently in triplicates.

[9] = system: P. falciparum (3D7); assay: Microscopy evaluation of blood-stage development (Giemsa smears); assay type: cell-based, Plasmodium falciparum; conditions: for parasites in segmented schizont stage: 48 h, 3D7, Giemsa smears
Procedure: Plasmodium falciparum (3D7) cultures were synchronized by three rounds of 5% sorbitol treatment for 1 hour. ^35 Parasites at ring stage with initial 1% parasitemia and 2% hematocrit were incubated with Triptiofen (6) at concentrations of 1 and 10 µM in 24‐well plates for 48 hours at 37°C under mixture of gases. The DMSO solvent (0.1%) was used as a control. Smears of infected erythrocytes stained with Giemsa were performed at regular intervals (0, 12, 24, 36 and 48 hours after treatment). ^36 Parasite images were acquired under a light microscope (Zeiss) with 100× magnification to assess the parasite's blood development stages. The parasitemia at the end of the experiment was quantified for comparison between groups. Three independent experiments were performed in triplicate. Data were analyzed using software GraphPad Prism 6.

[10] = read-out: IC50 (µM) PfelK1^‐ strain
[11] = 3D7, 72 h, read-out: IC50 (µM) 3D7 strain
[12] = read-out: IC50 PfelK1^‐ strain (antimalarials)
[13] = 72 h, parasitemia by flow cytometry, wild-type 3D7, read-out: IC50 3D7 strain (antimalarials)

Compound	activity at 0.5 µM [3] [%]	final parasitemia, compound along with melatonin [5] [%]	ability to abolish the increase in parasitemia triggered by melatonin [7]	decrease in parasitemia compared to treatment with the hormone only [7] [%]	parasitemia normalized to control, compound along with melatonin [7] [%]	IC50 [1, 10] [µM]	IC50 [4, 11] [µM]	activity at 0.5 µM [6] [%]	toxicity in HEK293 cells [8]	further results
COc1ccc2[nH]cc(CCNS(=O)(=O)c3ccc(C)cc3)c2c1 [Melatotosil (10), N‐(2‐(5‐methoxy‐1H‐indol‐3‐yl)ethyl)‐4‐methylbenzenesulfonamide]	97.5	106.2 ± 1.55	able to abolish	11.69	98.07	–	–	–	–	IC50 (µM) PfelK1^‐ strain ([1]; parasitemia by flow cytometry, PfeIK1 knockout): No activity; cytosolic calcium rise [2]: elicits a calcium rise; Fmax/F0 (maximum fluorescence normalized to baseline) [2]: 1.21 ± 0.01; IC50 (µM) 3D7 strain ([4]; 72 h, parasitemia by flow cytometry, wild-type 3D7): without antimalarial activity; also recorded: No activity; increase in parasitemia compared to control group [6]: 10%
O=C(NCCc1c[nH]c2ccccc12)C1CCCCC1 [Tripcicloexil (8), N‐(2‐(1H‐indol‐3‐yl)ethyl)cyclohexanecarboxamide]	101	105.5 ± 0.91	–	–	–	37.6 ± 2.72	28 ± 4.07	102	no toxicity	–
COc1ccc2[nH]cc(CCNS(=O)(=O)c3ccccc3)c2c1 [Melatobenz (9), N‐(2‐(5‐methoxy‐1H‐indol‐3‐yl)ethyl)benzenesulfonamide]	100	105.0 ± 1.97	–	–	–	57.8	38.5 ± 1.57	102	–	–
O=C1C(O)=C([C@H]2CC[C@H](c3ccc(Cl)cc3)CC2)C(=O)c2ccccc21 [Atovaquone, reference compound]	–	–	–	–	–	–	–	–	–	IC50 [1, 12]: 0.00047 µM; IC50 [4, 13]: 0.0004 µM
COc1ccc2[nH]cc(CCNC(=O)C3CCCCC3)c2c1 [Melatocicloexil (12), N‐(2‐(5‐methoxy‐1H‐indol‐3‐yl)ethyl)cyclohexanecarboxamide]	98.3	107.0 ± 1.37	–	–	–	47.6 ± 6.43	35.2 ± 4.14	104	–	–
COc1ccc2[nH]cc(CCNC(=O)c3ccco3)c2c1 [Melatofuroila (11), N‐(2‐(5‐methoxy‐1H‐indol‐3‐yl)ethyl)furan‐2‐carboxamide]	97.1	99.78 ± 2.03	–	–	–	31.9 ± 0.46	30.9 ± 4.92	102	–	–
O=C(NCCc1c[nH]c2ccccc12)c1ccc(Br)s1 [Triptiofen (6), N‐(2‐(1H‐indol‐3‐yl) ethyl)‐5‐bromothiophene‐2‐carboxamide]	98.7	104.1 ± 1.87	able to abolish	10	100.1	11.8 ± 0.6	9.76 ± 0.6	99.8	no toxicity	cytosolic calcium rise [2]: does not trigger a significant cytosolic calcium rise; Fmax/F0 (maximum fluorescence normalized to baseline) [2]: 1.11 ± 0.008; parasites in segmented schizont stage ([9]; 1 µM): 1.33 ± 0.33; parasites in segmented schizont stage ([9]; 10 µM): 2.22 ± 0.32; number of parasites compared to control ([9]; 1 and 10 µM, starting at 36 hours, 3D7): significantly reduces
O=S(=O)(NCCc1c[nH]c2ccccc12)c1ccccc1 [Tripbenz (4), N‐(2‐(1H‐indol‐3‐yl) ethyl)benzenesulfonamide]	95.6	–	–	–	–	36.8 ± 3.44	18.7 ± 2.5	100	no toxicity	–
CCN(CC)CCCC(C)Nc1ccnc2cc(Cl)ccc12 (stereo not shown) [Chloroquine, reference compound]	–	–	–	–	–	–	–	–	–	IC50 ([4]; 3D7, 72 h, read-out: IC50 3D7 strain (antimalarials)): 0.0099 µM
O=C(NCCc1c[nH]c2ccccc12)c1ccco1 [Tripfuroila (7), N‐(2‐(1H‐indol‐3‐yl)ethyl)furan‐2‐carboxamide]	98.5	102.3 ± 1.53	able to abolish	11.25	98.52	23.6 ± 2.2	17.1 ± 2.6	101	no toxicity	–
Cc1ccc(S(=O)(=O)NCCc2c[nH]c3ccccc23)cc1 [Triptosil (5), N‐(2‐(1H‐indol‐3‐yl)ethyl)‐4‐methylbenzenesulfonamide]	99.3 ± 2.18	105.4 ± 2.05	able to abolish	9.7	100	30.6 ± 1.55	19.8 ± 5.33	100	no toxicity	–
C[C@@H]1CC[C@H]2[C@@H](C)C(=O)O[C@@H]3O[C@@]4(C)CC[C@@H]1[C@]32OO4 [Artemisinin, reference compound]	–	–	–	–	–	–	–	–	–	IC50 [1, 12]: 0.0188 µM; IC50 [4, 13]: 0.0137 µM
